Source: article PMC12426922, “Fingerprinting the Intestinal Transport of Low-Molecular-Mass Advanced Glycation End-Products (AGEs) Using a Caco‑2 Transwell Model” (Journal of Agricultural and Food Chemistry, 2025)
Several values for one entry are separate records, joined by “and”; a condition that tells them apart may be missing. Equal values may be shown once. Read-outs that look alike come from different tables or passages of the source. Marks after values point to notes of the source that are not given here.

Columns and labels:
[1] = system: differentiated Caco-2 cells; test: WST-1 cytotoxicity assay, viability of differentiated Caco-2 cells after 2 h exposure; format: cell-based, Human
Protocol: (§1) Human colon carcinoma cells (Caco-2 cells) were obtained from the American Type Culture Collection (ATCC, Rockville, MD, USA). Caco-2 cells were cultured in complete culture medium, composed of DMEM GlutaMAX with 10% FBS (v/v), 1% P/S (v/v), and 1% NEAA (v/v) at 37 °C in a 5% (v/v) CO2 incubator. In this study, Caco-2 cells within passages 10–15 were utilized.
The WST-1 assay was used to quantify the viability of differentiated Caco-2 cells upon exposure to the individual AGEs and their equimolar mixture. To this end, Caco-2 cells were seeded in 96-well plates at 3 × 10^4 cells/well (100 μL) and incubated at 37 °C under 5% (v/v) CO2 for 20 days. The complete culture medium was refreshed on each alternate day. After full differentiation, the culture medium was removed, and the cells were washed with HBSS (containing 1% (v/v) HEPES) twice on the testing day. The same volume (100 μL) of HBSS containing a series of concentrations of the different individual test compounds or of a mixture containing all 10 AGEs was added from a 20-times-concentrated stock solution in HBSS. The test concentrations were designed based on the estimated daily intake of total AGEs (0.55–0.66 mg/(kg·day)) and high-exposure scenarios (1.4–1.8 mg/(kg day)). […] After exposure for 2 h, the absorbance at 440 and 620 nm was measured in a plate spectrophotometer (Molecular Devices, San Jose, CA, USA, Spectra Max M2). After measurement, the cell viability was calculated as cell viability (%)=(Atested 440 nm−Atested 620 nm)/(Acontrol 440 nm−Acontrol 620 nm)×100

[2] = Transport of AGE mixture across Caco-2 cell layer (transwell, apical to basolateral); format: in vitro ADME, Human; conditions: human; for recovery at 2 h, 100 μmol/L: read-out: percentage of the amount added at the apical side at t = 0: recovery; for Papp at 120 min, 100 μmol/L: data from 120 min
Protocol: as §1
(§2) Caco-2 cells were cultured until reaching 50%–60% confluence (undifferentiated Caco-2 cells), followed by trypsinization. Then, cells were seeded at 3 × 10^4 cells per insert in 100 μL of complete culture medium into the transwell inserts of a 24-well transwell plate, and 600 μL of complete culture medium was added to the basolateral compartments. In both the apical and basolateral compartments, the medium was renewed every other day. After 2 weeks, the transepithelial electrical resistance (TEER) value was measured using a Millicell ERS-2 Electrical Resistance System (Burlington, MA, USA) every other day. Only wells with a TEER value of >400 Ω/cm^2 were used for transport experiments. Moreover, the TEER value was measured before and after the transport experiment to ascertain that the Caco-2 cell layer remained intact during the whole transport experiment.
(§3) Transport experiments were performed after 20 days of differentiation of the Caco-2 cells. The culture medium was replaced with HBSS (containing 1% (v/v) HEPES) 30 min prior to testing in both the apical and basolateral compartments. After the 30 min preincubation, 100 μL of HBSS containing a mixture of the 10 different AGEs including CML, CEL, GALA, argpyrimidine, MG-H1, GOLD, GOLA, MOLD, pentosidine, and pyrraline, each at 100 μmol/L, was added to the apical compartment after removing the preincubation medium, while the basolateral medium was replaced by 600 μL of HBSS. […] At 120 min, a 10 μL sample from the apical side was taken for calculating apical side retention (nontransported percentage).
(§4) The apparent permeability coefficient (Papp) value was calculated according to the methodology described by Yee.
(§5) AGEs were quantified by LC-MS using a Shimadzu Nexera XR LC-40D XR UPLC system (Kyoto, Japan) equipped with a UPLC Amide column (100 mm × 2.1 mm, 1.7 μm) without derivatization coupled with a Shimadzu LCMS-8045 triple quadrupole mass spectrometer (Kyoto, Japan). The analytical column was maintained at 40 °C throughout the quantification process. A multistep binary gradient system of water containing 0.1% (v/v) formic acid (solvent A) and acetonitrile containing 0.1% (v/v) formic acid (solvent B) was used. In the whole gradient program, the total proportion of solvents A and B is always equal to 100%. The gradient program was designed as follows: 75% solvent B to 12.5% solvent B from 0 to 10 min, followed by 12.5% solvent B from 10 to 11 min. […] The initial flow rate was set to 0.30 mL/min. Subsequently, it was reduced to 0.25 mL/min at 0.3 min, which was kept until 10 min. Afterward, there was a gradual decrease, reaching 0.15 mL/min at 11 min, and this rate was maintained until 12 min. […] Between 1 and 11 min of gradient running, the line was set to MS, and for the other time periods, the line was set to waste. The retention time and mass spectrometry parameters of individual AGEs are listed in Table S1 and the chromatograms of the samples are shown in Figure S1.

Caco-2 cell layer = test: as above; format: in vitro ADME, Human; conditions: for percentage of the amount added at the apical side at t = 0: apical side / percentage of the amount added at the apical side at t = 0: basolateral side / percentage of the amount added at the apical side at t = 0: apical side (nontransported) / percentage of the amount added at the apical side at t = 0: basolateral side (transported): mixture, each AGE 100 μmol/L, 2 h; for percentage of the amount added at the apical side at t = 0: apical side (nontransported) / percentage of the amount added at the apical side at t = 0: basolateral side (transported): standard treatment
Protocol: as §1, §2, §3, §4, §5

PepT1 = test: as above; format: in vitro ADME, Human; conditions: human, mixture, each AGE 100 μmol/L; for recovery at 2 h, 100 μmol/L: Caco-2, with Gly-Sar 10 mmol/L (apical compartment), Gly-Sar 10 mmol/L, read-out: percentage of the amount added at the apical side at t = 0: recovery; for Papp at 120 min, 100 μmol/L: Caco-2, with Gly-Sar 10 mmol/L (apical), 10 mmol/L Gly-Sar apical (PepT1 inhibition), data from 120 min
Protocol: as §1, §2, §3, §4, §5

Caco-2 cell monolayer [3] = test: Accumulation of AGEs in the Caco-2 cell monolayer after transport experiment; format: in vitro ADME, Human; conditions: mixture, each AGE 100 μmol/L, 2 h; for percentage of the amount added at the apical side at t = 0: accumulation (intracellular): standard treatment
Protocol: After the transport experiment, the cell monolayer on the inset membrane was washed three times with HBSS and three times with PBS. […] The samples were subsequently centrifuged at 16 000g for 20 min at 4 °C, and the supernatant was collected for further analysis by LC-MS.
as §5, with “The” for “AGEs were quantified by LC-MS using a Shimadzu Nexera XR LC-40D XR UPLC system (Kyoto, Japan) equipped with a UPLC Amide column (100 mm × 2.1 mm, 1.7 μm) without derivatization coupled with a Shimadzu LCMS-8045 triple quadrupole mass spectrometer (Kyoto, Japan). The”, “100%.” for “100%. The gradient program was designed as follows: 75% solvent B to 12.5% solvent B from 0 to 10 min, followed by 12.5% solvent B from 10 to 11 min.”

Caco-2 cell monolayer [4] = system: Caco-2 cell monolayer; set-up: method as in our previous study; conditions: CML in single testing; ref our previous study; cited from earlier work
[5] = Caco-2, 4 °C, mixture, each AGE 100 μmol/L
[6] = Caco-2, cytochalasin D pretreatment, mixture, each AGE 100 μmol/L
[7] = Caco-2, standard treatment (37 °C), equimolar mixture of 10 AGEs, each 100 μmol/L apical
[8] = Caco-2, standard treatment, mixture, each AGE 100 μmol/L
[9] = Caco-2, cytochalasin D 1 μg/mL, 30 min apical preincubation, mixture, each AGE 100 μmol/L

Row | Structure (SMILES) | effect on cell viability [1] | recovery at 2 h, 100 μmol/L [2, 5] [%] | Papp at 120 min, 100 μmol/L [2, 5] [×10⁻⁶ cm/s] | recovery at 2 h, 100 μmol/L [2, 6] [%] | Papp at 120 min, 100 μmol/L [2, 7] [×10⁻⁶ cm/s] | recovery at 2 h, 100 μmol/L [2, 8] [%] | Papp at 120 min, 100 μmol/L [2, 9] [×10⁻⁶ cm/s] | percentage of the amount added at the apical side at t = 0: apical side (Caco-2 cell layer; 4 °C) | percentage of the amount added at the apical side at t = 0: basolateral side (Caco-2 cell layer; 4 °C) | percentage of the amount added at the apical side at t = 0: apical side (Caco-2 cell layer; Gly-Sar 10 mmol/L) | percentage of the amount added at the apical side at t = 0: basolateral side (Caco-2 cell layer; Gly-Sar 10 mmol/L) | percentage of the amount added at the apical side at t = 0: apical side (Caco-2 cell layer; cytochalasin D pretreatment) | percentage of the amount added at the apical side at t = 0: basolateral side (Caco-2 cell layer; cytochalasin D pretreatment) | percentage of the amount added at the apical side at t = 0: apical side (nontransported) (Caco-2 cell layer) | percentage of the amount added at the apical side at t = 0: basolateral side (transported) (Caco-2 cell layer) | recovery at 2 h, 100 μmol/L (PepT1) [%] | Papp at 120 min, 100 μmol/L (PepT1) [×10⁻⁶ cm/s] | percentage of the amount added at the apical side at t = 0: accumulation (Caco-2 cell monolayer [3]; 4 °C) | percentage of the amount added at the apical side at t = 0: accumulation (Caco-2 cell monolayer [3]; Gly-Sar 10 mmol/L) | percentage of the amount added at the apical side at t = 0: accumulation (Caco-2 cell monolayer [3]; cytochalasin D pretreatment) | other results
1 | N[C@@H](CCCCNCC(=O)O)C(=O)O [CML, N-ε-(carboxymethyl)-lysine] | did not affect cell viability up to the highest concentration tested | 90 ± 5.3 | 0.105 | 96.9 ± 5.8 | 0.219 | 93.1 ± 6.1 | 0.561 | 89.4 ± 5.3 ^a % | 0.3 ± 0.1 ^b % | 86.2 ± 3.6 ^a % | 0.5 ± 0.1 ^b % | 91.8 ± 5.7 ^a % | 1.3 ± 0.6 ^a % | 89.0 ± 6.1 ^a % | 0.5 ± 0.3 ^b % | 92.7 ± 3.1 | 0.207 | 0.3 ± 0.3 ^c % | 6.0 ± 2.1 ^a % | 3.8 ± 0.9 ^b % | effect of 4 °C on transport compared to 37 °C (Caco-2 cell layer; 4 °C versus 37 °C): significantly reduced; Papp value in the mixture as percentage of the Papp value tested in isolation in previous study (Caco-2 cell layer; mixture versus compound in isolation (our previous study)): 57%; percentage of the amount added at the apical side at t = 0: accumulation (intracellular) (Caco-2 cell monolayer [3]): 3.5% and 3.5 ± 0.6 ^b %; intracellular accumulation (Caco-2 cell monolayer [4]): 4.5%
2 | N[C@@H](CCCC[n+]1cccc2[nH]c(NCCC[C@H](N)C(=O)O)nc21)C(=O)O [pentosidine] | – | 83.3 ± 6.6 | 0.054 | 92.6 ± 14.5 | 0.083 | 96.9 ± 12.3 | 0.278 | 83.2 ± 6.7 ^a % | 0.1 ± 0.1 ^b % | 92.8 ± 10.4 ^a % | 0.1 ± 0.1 ^b % | 95.0 ± 14.2 ^a % | 0.7 ± 0.4 ^a % | 89.1 ± 12.2 ^a % | – | 93 ± 10.5 | 0.061 | 0.0 ± 0.0 ^a % | 0.0 ± 0.0 ^a % | 0.0 ± 0.0 ^a % | concentration that did not significantly affect cell viability ([1]; for the mixture: concentration of each AGE): ≤ 500 µM
3 | N[C@@H](CCCCn1c(C=O)ccc1CO)C(=O)O [pyrraline] | did not affect cell viability up to the highest concentration tested | 87.1 ± 6.1 | – | 90.3 ± 4.9 | 0.1 | 89 ± 5.6 | 0.334 | 86.9 ± 6.0 ^a % | 0.1 ± 0.1 ^b % | 86.4 ± 2.8 ^a % | 0.2 ± 0.1 ^b % | 89.4 ± 4.7 ^a % | 0.8 ± 0.5 ^a % | 88.6 ± 5.5 ^a % | 0.2 ± 0.1 ^b % | 86.7 ± 2.8 | 0.08 | 0.0 ± 0.0 ^b % | 0.1 ± 0.0 ^a % | 0.2 ± 0.1 ^a % | percentage of the amount added at the apical side at t = 0: accumulation (intracellular) (Caco-2 cell monolayer [3]): 0.1 ± 0.1 ^a %
